Results published in patent publication US20060069104A1, “Neurotrophic factor production accelerator” (priority 2002, published 2006).

Test system: GDNF mRNA in cultured astroglia
Test: Quantification of GDNF mRNA by RT-PCR in cultured astroglia
Format: cell-based, Wistar rat
Conditions: cultured rat astroglia
Protocol: Astroglia was prepared from the brain of a 1 to 2-day-old Wistar rat. It was inoculated to a 75 cm^2 culture flask, and incubated in Eagle's minimum essential medium supplemented with 10% fetal bovine serum for 10 to 14 days. Then, it was shaken overnight at 250 rpm, and microglia and oligodendroglia on the astroglia monolayer were removed. Astroglia was dispersed in 0.25% trypsin (1:400, Invitrogen), and inoculated to a 6-well plate. It was further incubated for 7 to 10 days, and confluent cells were used for the experiment.
The cultured astroglia prepared by the above-mentioned method was incubated in serum-free Eagle's minimum essential medium for 48 hours. The total RNA was prepared by AGPC (Acid Guanidinium-Phenol-Chloroform) method (Chomczynski P., and Sacchi N., Anal. Biochem. 162, 156-159 (1987)). […] The fluorescence intensity of the PCR product was imaged by Fluoro Imager (Molecular Dynamics), and fluorescence bands were quantified by NIH Image. The amount of the PCR product of the eurotrophic factor was standardized using the amount of the β-actin PCR product of cDNA, and the amount of relative mRNA was determined. The activity of N-(4-acetyl-1-piperazinyl)-p-fluorobenzamide monohydrate (hereinafter to be also referred to as a test drug.) on neurotrophic factor production was evaluated by a Tukey-Kramer assay. […]

`CC(=O)N1CCN(NC(=O)c2ccc(F)cc2)CC1.O` [test drug, N-(4-acetyl-1-piperazinyl)-p-fluorobenzamide monohydrate] was tested, and the “amount of GDNF mRNA (relative mRNA amount standardized using the amount of the β-actin PCR product)” value (serum-free medium, from 3 hours after the treatment with the test drug, RT-PCR, Tukey-Kramer) was “significant increase” and the “time of peak of GDNF mRNA amount after treatment” value (time-course after treatment with the test drug (FIG. 1)) was 6 h.
